Experimental data published in patent US20250360108A1, “CATALYTIC INHIBITOR OF PROTEIN PHOSPHATASE 5 ACTIVATES THE EXTRINSIC APOPTOTIC PATHWAY BY DISRUPTING COMPLEX II” (The Research Foundation for the State University of New York, priority 2022, published 2025).

Columns and labels:
PP5-FLAG = molecular target: T1, PP5-FLAG (Homo sapiens, UniProt P53041); test: Biotin-P5 and biotin-P13 pulldown from HEK293 lysate; assay type: binding
T1 construct: expressed in transfected cells; host or cells: HEK293
T1 sequence (P53041 1-499): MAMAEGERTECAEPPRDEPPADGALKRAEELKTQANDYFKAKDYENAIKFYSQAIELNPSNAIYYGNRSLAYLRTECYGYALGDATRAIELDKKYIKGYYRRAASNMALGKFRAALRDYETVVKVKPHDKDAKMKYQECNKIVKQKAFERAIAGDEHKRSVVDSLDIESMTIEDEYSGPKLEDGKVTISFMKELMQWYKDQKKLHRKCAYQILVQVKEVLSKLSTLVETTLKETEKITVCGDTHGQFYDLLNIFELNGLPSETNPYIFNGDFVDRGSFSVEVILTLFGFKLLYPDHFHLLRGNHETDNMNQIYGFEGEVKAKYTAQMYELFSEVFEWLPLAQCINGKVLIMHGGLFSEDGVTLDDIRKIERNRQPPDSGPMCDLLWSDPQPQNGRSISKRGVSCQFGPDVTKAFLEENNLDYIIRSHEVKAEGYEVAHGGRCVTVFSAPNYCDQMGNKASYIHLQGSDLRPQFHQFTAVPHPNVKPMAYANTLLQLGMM
Description: (§1) Biotin-P5 and biotin-P13 Pulldown: HEK293 cells were transiently transfected with PP5-FLAG or active site point mutants and protein lysate extracted. Lysate was incubated with 0.01-10 μM biotin-P5 or biotin P-13 as indicated at 4° C. for 1 hr then added to streptavidin-conjugated agarose and incubated at 4° C. for 1 hr. Following three washes with fresh extraction buffer bound proteins were eluted in 5× Laemmli buffer and analyzed by Western blot. […] Samples were run by SDS PAGE, transferred to nitrocellulose membrane, and analyzed by Western blot.

[1] = molecular target: T2, PP5-FLAG active site point mutants (Homo sapiens, UniProt P53041, R400A); test: Biotin-P13 pulldown of PP5 active site point mutants; assay type: binding; details: HEK293 lysate
T2 construct: expressed in transfected cells; host or cells: HEK293
T2 sequence (P53041 2-499 R400A): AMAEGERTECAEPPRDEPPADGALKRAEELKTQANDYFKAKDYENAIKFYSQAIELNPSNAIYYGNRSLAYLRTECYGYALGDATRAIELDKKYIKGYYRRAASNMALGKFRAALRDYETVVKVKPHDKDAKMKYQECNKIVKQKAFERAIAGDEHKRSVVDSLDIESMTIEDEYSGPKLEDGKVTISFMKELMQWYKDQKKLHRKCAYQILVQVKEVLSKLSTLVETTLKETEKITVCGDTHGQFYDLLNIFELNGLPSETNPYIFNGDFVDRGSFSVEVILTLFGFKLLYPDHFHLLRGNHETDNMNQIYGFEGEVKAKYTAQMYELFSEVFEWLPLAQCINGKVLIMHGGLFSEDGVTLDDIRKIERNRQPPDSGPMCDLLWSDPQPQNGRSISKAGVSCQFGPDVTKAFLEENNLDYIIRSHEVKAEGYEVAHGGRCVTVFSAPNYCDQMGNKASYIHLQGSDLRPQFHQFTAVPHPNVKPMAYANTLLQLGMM
Description: (§2) We then mutated docking site residues in the active site of PP5 to obtain further insight into the mechanism of P13 binding to PP5. […] These mutants were transiently expressed in HEK293 cells, and then the protein lysates were challenged with different amounts of biotin-P13 (FIG. 1G).
as §1

[2] = system: PP5-FLAG active site point mutants; test: as above; assay type: binding, human; details: HEK293 lysate
Description: as §2, §1

PP2A = test: Biotin-P5 / biotin-P13 pulldown in 786-O lysate, co-pulldown of PP2A; assay type: binding, human; details: cell lysate, 1 μM
PP5 = molecular target: T3, PP5 (Homo sapiens, UniProt P53041); details: cited from earlier work
T3 sequence (P53041 1-499): T1 sequence (P53041 1-499)

PP1 = details: cited from earlier work
786-O cells [3] = test: Induction of apoptosis by immunoblotting of apoptotic markers; assay type: cell-based, human
Description: Method Details Cell Transfection and Treatment: Cultured cells were split and then transfected the following day when about 40% confluent with each construct using Mirus TranslT-2020 (MirusBio) according to manufacturer's protocol. Cells were incubated at 37° C. and then extracted or collected for analysis after 24 hrs (HEK293) or 72 hrs (ccRCC cell lines). Short interfering RNA (siRNA) scramble control and PPP5C (PP5) targeting duplexes were purchased from OriGene (SKU: SR321403A, SR321403B, and SR321403C). Indicated cells were transiently transfected with the siRNA using Mirus TranslT-2020. For PP5 knock-down, either 30 nM of control siRNA or 10 nM of each PP5 siRNA duplex (A, B and C) were mixed prior to transfection. Cells were incubated at 37° C. for 72 hrs, then harvested for protein extraction. […] Cells were then harvested for protein extraction.
Protein Extraction, Immunoprecipitation and Immunoblotting: Protein extraction from mammalian cells was carried out using methods previously described. Cell lysates were quantified using 1× Bradford reagent (Biorad). For immunoprecipitation, cell lysates were incubated with anti-FLAG antibody conjugated beads (Sigma) or anti-HA conjugated beads (ThermoFisher Scientific) at 4° C. for 2 hrs. Endogenous IPs were achieved by incubating lysate with anti-PP5 antibody (Cell Signaling), anti-FADD antibody (Cell Signaling), or anti-RIPK1 antibody (Cell Signaling) overnight followed by protein G agarose (Invitrogen) at 4° C. for 2 hrs. Immunopellets were washed 4 times with fresh lysis buffer (20 mM Tris-HCl (pH 7.4), 100 mM NaCl, 1 mM MgCl2, 0.1% NP40, protease inhibitor cocktail (Roche), and PhosSTOP (Roche)) and eluted in 5× Laemmli buffer. Precipitated proteins were separated by SDS-PAGE and transferred to nitrocellulose membranes. Co-immunoprecipitated proteins or proteins from cell lysate were detected with antibodies recognizing FLAG, 6×-His (ThermoFisher Scientific), GAPDH (ENZO Life Sciences), Cdc37 (StressMarq), GR, phospho-GR (S211), PP5, caspase-3, cleaved caspase-3, caspase-8, cleaved caspase-8, cleaved caspase-7, cleaved-PARP, phospho-RIPK1 (S166), phospho-FADD (S194), PP2A-C, VHL (Cell Signaling), phospho-RIPK1 (S161) (Invitrogen), PP5 and phospho-Cdc37 (S13) (Abcam). Secondary antibodies raised against mouse and rabbit (Cell Signaling) were used (See Key Resources Table).

VHL-null ccRCC cells = test: Flow cytometric cell death by propidium iodide staining; assay type: cell-based, human; details: 30 or 40 μM; A498 and 786-O versus Caki-1 and Caki-2
Description: Flow Cytometric Analysis: Fluorescence-activated cell sorting (FACS) analysis was performed according to the protocol in the Annexin V:FITC kit (Bio-Rad). In brief, cells were plated in 10 cm dish at 0.5×10^6 and incubated at 37° C. for 18 hrs. […] Cells were trypsinized, collected and washed once with 1× binding buffer (included in the kit). Propidium iodide was added, then the cells were immediately run on a Becton Dickinson LSRFortessa instrument (BD Biosciences). Data were analyzed using FlowJo software version 10.7.1 for Windows (BD Biosciences).

S194-FADD = test: Phosphorylation of S194-FADD by immunoblot after IC261; assay type: cell-based, human; details: 786-O and A498 cells, indicated amounts, 24 hrs
Description: Method Details Cell Transfection and Treatment: Cultured cells were split and then transfected the following day when about 40% confluent with each construct using Mirus TranslT-2020 (MirusBio) according to manufacturer's protocol. Cells were incubated at 37° C. and then extracted or collected for analysis after 24 hrs (HEK293) or 72 hrs (ccRCC cell lines). Short interfering RNA (siRNA) scramble control and PPP5C (PP5) targeting duplexes were purchased from OriGene (SKU: SR321403A, SR321403B, and SR321403C). Indicated cells were transiently transfected with the siRNA using Mirus TranslT-2020. For PP5 knock-down, either 30 nM of control siRNA or 10 nM of each PP5 siRNA duplex (A, B and C) were mixed prior to transfection. […]
Protein Extraction, Immunoprecipitation and Immunoblotting: Protein extraction from mammalian cells was carried out using methods previously described. Cell lysates were quantified using 1× Bradford reagent (Biorad). […] Co-immunoprecipitated proteins or proteins from cell lysate were detected with antibodies recognizing FLAG, 6×-His (ThermoFisher Scientific), GAPDH (ENZO Life Sciences), Cdc37 (StressMarq), GR, phospho-GR (S211), PP5, caspase-3, cleaved caspase-3, caspase-8, cleaved caspase-8, cleaved caspase-7, cleaved-PARP, phospho-RIPK1 (S166), phospho-FADD (S194), PP2A-C, VHL (Cell Signaling), phospho-RIPK1 (S161) (Invitrogen), PP5 and phospho-Cdc37 (S13) (Abcam). […]

recombinant PP5-His6 [4] = molecular target: T4, recombinant PP5-His6 (Homo sapiens, UniProt P53041); test: PP5 Phosphatase Activity and Inhibition Assay (PiPer phosphate release, phospho-S211-GR peptide); assay type: biochemical; details: phospho-S211-GR peptide substrate
T4 construct: GST (N, cleaved yes); made in house
T4 sequence (P53041 1-499): T1 sequence (P53041 1-499)
Description: PP5 inhibitors specifically bind to the phosphatase-catalytic domain: We next sought to measure the inhibition of PP5 activity in vitro with P5 and P13.
Bacterial Expression and Protein Purification of PP5: Human PPP5c was cloned into pGEX6P1 with an N-terminal GST tag and C-terminal His6 tag. Transformed cells were grown at 37° C. in LB with 100 mg/L ampicillin until OD600=0.6 and induced with 1 mM IPTG. Cells were harvested by centrifugation and lysed by sonication in lysis buffer (50 mM Hepes (pH 8.0), 150 mM NaCl, 0.5 mM TCEP and EDTA-free protease inhibitor cocktail tablet (Roche)). Lysate was incubated with talon resin (Takara Bio) for 1 hr at 4° C. The resin was washed three times with lysis buffer and PP5 was eluted with lysis buffer containing 250 mM imidazole. Precision protease was added to the elution overnight to cleave the GST tag and the sample was then mixed with Glutathione Sepharose resin (Cytiva) to remove the free GST and un-cleaved protein. The sample was applied to a Superdex S75 16/60 size exclusion column (GE Healthcare) and eluted in 100 mM NaCl, 20 mM Hepes pH 8, 02 mM TCEP.
PP5 Phosphatase Activity and Inhibition Assay: The phosphatase activity of the recombinant PP5-His6 was measured using the PiPer™ Phosphate Assay Kit (Thermo Fisher Scientific) as described in the manufacturer's protocol. Standard curve with linear fit line was created from 0-1 nM Pifinal concentration reactions. 1 nM of PP5-His6 was added to each reaction with indicated amounts of custom synthesized substrate phospho-S211-glucocorticoid receptor (PhosS211-GR) peptide (see Key Resources Table) as specific substrate (Thermo Fisher Scientific). Reactions were run in triplicate and incubated at 37° C. for over 10 min. […] Enzyme kinetics were calculated and plotted using Lineweaver Burk plot and web-based tool (https://www.aatbio.com/tools/ic50-calculator) for calculating IC50 and (https://bioinfo-abcc.ncifcrf.gov/IC50_Ki_Converter/index.php) for converting IC50 to Ki values for inhibitors of enzyme activity and ligand binding.

recombinant PP5-His6 [5] = molecular target: T4, recombinant PP5-His6; test: P13-BODIPY binding to PP5 by fluorescence anisotropy; details: measured with 10 nM BODIPY-labeled P13, one-site fit; read-out: binding affinity to PP5
Description: We next synthesized BODIPY-labelled version of compound P13 (P13-BODIPY) in order to obtain the binding affinity of this inhibitor to PP5 in vitro (FIG. S3A). This was accomplished by coupling the azidopropyl-P13 10 with 4,4-difluoro-5,7-dimethyl-4-bora-3a,4a-diaza-s-indacene-3-propionic acid (BODIPY Acid 13). Using fluorescence anisotropy with recombinant PP5 protein (FIG. S3B), we determined the binding affinity of P13 compound to PP5 to be 376.2±60 nM (FIG. 1H).
Binding Measurements and Anisotropy: Recombinant PP5-His6 at the indicated concentrations was incubated on ice in 100 mM NaCl, 20 mM HEPES pH 8.0, 1% glycerol, 0.2 mM tris(2-carboxyethyl)phosphine (TCEP) and 0.5 mM MnCl2 with 10 nM BODIPY-labeled P13 in 2% DMSO for 30 min in opaque black 96 well plates (Corning). Uncalibrated fluorescence anisotropy was then measured using a SpectraMax i3 equipped with fluorescein anisotropy module (Molecular Devices). Curves were fit to a one-site binding equation using GraphPad Prism version 9.5.0. y=y0+A*x/(Kd+x) where y is measured uncalibrated anisotropy, y0 is the y intercept, A is the amplitude of the curve, x is the concentration of PP5 used, and Kd is the measured dissociation constant. Data are presented as mean±SEM.

786-O cells [6] = test: Cell viability / proliferation MTT assay; assay type: cell-based, human; details: varying doses, 48 hrs
Description: Cell Viability Assay: Renal cancer cell lines 786-O, Caki-2, Caki-1, and A498 as well as the normal renal cell line HK-2 were plated at 10,000 cells per well in 96-well plates. […] After 24 or 48 hrs, cell viability assay was performed using the Quick Cell Proliferation Kit Plus (BioVision) according to the manufacturer's protocol. The absorbance at 450 nm was measured on a Tecan Infinite M200 Pro and proliferation rate was calculated.

## Cc1ccc(N(CCCNC(=O)CCC[C@@H]2SC[C@@H]3NC(=O)N[C@@H]32)S(=O)(=O)c2c(C)noc2C)cc1C [biotin-P13, 4-[(3aS,4S,6aR)-2-Oxo-hexahydro-1H-thieno[3,4-d]imidazol-4-yl]-N-(3-[N-(3,4-dimethylphenyl)3,5-dimethyl-1,2-oxazole-4-sulfonamido]propyl}butanamide]
PP5-FLAG; 10 μM
  binding to PP5-FLAG compared to biotin-P5: bound more
PP5-FLAG; 0.01-10 μM
  binding of PP5-FLAG to biotinylated compound (streptavidin pulldown): binds
[1]
  binding of R400A PP5 mutant compared to wild-type PP5: reduced binding
[2]
  binding of H304Q, M309C and W386F PP5 mutants: unable to bind
  binding of R275A and Y451F PP5 mutants compared to wild-type PP5: increased binding
PP2A
  binding to PP2A: did not bind

## CN1CCN(C(=O)C2C(C(=O)O)[C@H]3CC[C@@H]2O3)CC1 (stereo partly shown) [LB-100]
PP5
  inhibition of PP5: inhibit
PP1
  inhibition of PP1: inhibit

## Cc1noc(C)c1S(=O)(=O)Nc1ccc(Cc2ccccc2)cc1 [Compound P053, (3,5-Dimethyl-4-isoxazolylsulfonyl)(p-benzylphenyl)amine]
786-O cells [3]; 10 μM, 24 hrs
  cleavage of caspase 3 and PARP: increased cleavage
  cleavage of caspase 8 versus caspase 9 (extrinsic apoptosis): cleavage of caspase 8 but not caspase 9
  induction of apoptosis (cleaved PARP, cleaved caspase 8): had the ability to induce apoptosis
VHL-null ccRCC cells
  cell death (PI staining): selectively caused cell death

## COc1cc(OC)c(C=C2C(O)=Nc3ccccc32)c(OC)c1 [IC261, reference compound]
786-O cells [3]; indicated amounts, 16 hrs
  induction of extrinsic apoptosis (apoptotic markers): induced extrinsic apoptosis in a dose-dependent manner
S194-FADD
  S194-FADD phosphorylation: increase in S194-FADD phosphorylation

## Cc1ccc(NS(=O)(=O)c2c(C)noc2C)cc1C [Compound P13, (3,5-Dimethyl-4-isoxazolylsulfonyl)(3,4-xylyl)amine]
Recombinant PP5-His6 [4]
  mode of PP5 inhibition (enzyme kinetics, Lineweaver-Burk): competitive inhibitors
Recombinant PP5-His6 [4]; IC50 converted to Ki
  Ki: 234 ± 50 nM
Recombinant PP5-His6 [5]
  Kd: 376 ± 60 nM
786-O cells [6]
  proliferation of 786-O cells (MTT): significantly inhibited the proliferation
786-O cells [3]; 10 μM, 24 hrs
  cleavage of apoptotic markers caspase 3 and 8 and PARP: cleavage of the apoptotic markers caspase 3 and 8 and PARP
